In PubChem BioAssay (NCI):
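Interpolation was linear, between the two tested concentrations surrounding the appropriate level; five concentrations were tested over 48 hours in 96-well plates. The concentration for 50% growth inhibition is given as GI50. Definition used: TGI = concentration required for complete inhibition of growth.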

Columns and labels:
Experiment in all cases: NCI tumour cell line growth inhibition, 48 h
[1] = system: OVCAR-4 ovarian
[2] = system: DU-145 prostate
[3] = system: MOLT-4 leukemia
[4] = system: NCI/ADR-RES ovarian
[5] = system: U251 CNS
[6] = system: OVCAR-8 ovarian
[7] = system: SF-268 CNS
[8] = system: ACHN renal
[9] = system: OVCAR-3 ovarian
[10] = system: K-562 leukemia
[11] = system: NCI-H226 lung
[12] = system: SK-MEL-2 melanoma
[13] = system: UO-31 renal
[14] = system: UACC-62 melanoma
[15] = system: TK-10 renal
[16] = system: HL-60(TB) leukemia
[17] = system: LOX IMVI melanoma
[18] = system: SF-539 CNS
[19] = system: SNB-75 CNS
[20] = system: CCRF-CEM leukemia
[21] = system: EKVX NSCLC
[22] = system: SK-MEL-5 melanoma
[23] = system: NCI-H23 lung
[24] = system: T-47D breast
[25] = system: A549 NSCLC
[26] = system: HCT-116 colon
[27] = system: SW-620 colon
[28] = system: SK-MEL-28 melanoma
[29] = system: UACC-257 melanoma
[30] = system: 786-0 renal
[31] = system: RPMI-8226 leukemia
[32] = system: PC-3 prostate
[33] = system: SR leukemia
[34] = system: RXF 393 renal
[35] = system: HCC-2998 colon
[36] = system: MALME-3M melanoma
[37] = system: CAKI-1 renal
[38] = system: MDA-MB-435
[39] = system: COLO 205 colon
[40] = system: HOP-62 NSCLC
[41] = system: IGROV1 ovarian
[42] = system: HCT-15 colon
[43] = system: BT-549 breast
[44] = system: SF-295 CNS
[45] = system: SN12C renal
[46] = system: NCI-H460 lung
[47] = system: OVCAR-5 ovarian
[48] = system: NCI-H522 lung
[49] = system: SK-OV-3 ovarian
[50] = system: HT29 colon
[51] = system: A498 renal
[52] = system: SNB-19 CNS
[53] = system: KM12 colon
[54] = system: MDA-MB-231 breast
[55] = system: HS 578T breast
[56] = system: MCF7 breast
[57] = system: HOP-92 NSCLC
[58] = system: M14 melanoma

For `C[n+]1c2ccccc2nc2ccccc21`, the GI50 [1] was 447 nM, the TGI [1] was 1750 nM and the GI50 [2] was 1570 nM. For the same molecule, the TGI [2] was 3120 nM, the GI50 [3] was 4190 nM and the TGI [3] was over 23500 nM. The GI50 [4] was 1680 nM, the TGI [4] was 6910 nM and the GI50 [5] was 1440 nM. The TGI [5] was 3090 nM, the GI50 [6] was 2610 nM and the TGI [6] was 20600 nM. The GI50 [7] was 2520 nM, the TGI [7] was 7780 nM and the GI50 [8] was 789 nM. For the same molecule, the TGI [8] was 5500 nM, the GI50 [9] was 338 nM and the TGI [9] was 1190 nM. The GI50 [10] was 1860 nM, the TGI [10] was over 32400 nM and the GI50 [11] was 2630 nM. The TGI [11] was 9470 nM, the GI50 [12] was 1760 nM and the TGI [12] was 4540 nM. For the same molecule, the GI50 [13] was 2390 nM, the TGI [13] was 7600 nM and the GI50 [14] was 1410 nM. The TGI [14] was 2990 nM, the GI50 [15] was 2710 nM and the TGI [15] was 13000 nM. The GI50 [16] was 1740 nM, the TGI [16] was over 16100 nM and the GI50 [17] was 819 nM. The TGI [17] was 2380 nM, the GI50 [18] was 1680 nM and the TGI [18] was 4760 nM. For the same molecule, the GI50 [19] was 1380 nM, the TGI [19] was 3100 nM and the GI50 [20] was 683 nM. It also gave a TGI [20] of over 28700 nM, a GI50 [21] of 1690 nM and a TGI [21] of 7960 nM. The GI50 [22] was 1030 nM, the TGI [22] was 2520 nM and the GI50 [23] was 670 nM. For the same molecule, the TGI [23] was 2340 nM, the GI50 [24] was 1070 nM and the TGI [24] was 2720 nM. The GI50 [25] was 2930 nM, the TGI [25] was 19900 nM and the GI50 [26] was 820 nM. The TGI [26] was 2890 nM, the GI50 [27] was 1370 nM and the TGI [27] was 3260 nM. It also gave a GI50 [28] of 1590 nM, a TGI [28] of 3100 nM and a GI50 [29] of 1800 nM. For the same molecule, the TGI [29] was 5010 nM, the GI50 [30] was 2310 nM and the TGI [30] was 8470 nM. It also gave a GI50 [31] of 343 nM, a TGI [31] of 16300 nM and a GI50 [32] of 1060 nM. It also gave a TGI [32] of 12000 nM, a GI50 [33] of 6140 nM and a TGI [33] of over 28200 nM. For the same molecule, the GI50 [34] was 1700 nM, the TGI [34] was 4290 nM and the GI50 [35] was 2110 nM. The TGI [35] was 7220 nM, the GI50 [36] was 1220 nM and the TGI [36] was 2700 nM. The GI50 [37] was 2090 nM, the TGI [37] was 6420 nM and the GI50 [38] was 516 nM. The TGI [38] was 1750 nM, the GI50 [39] was 375 nM and the TGI [39] was 1390 nM. The GI50 [40] was 3660 nM, the TGI [40] was 10700 nM and the GI50 [41] was 2860 nM. It also gave a TGI [41] of 14000 nM, a GI50 [42] of 2070 nM and a TGI [42] of 10800 nM. For the same molecule, the GI50 [43] was 2260 nM, the TGI [43] was 10800 nM and the GI50 [44] was 1540 nM. For the same molecule, the TGI [44] was 4190 nM, the GI50 [45] was 1630 nM and the TGI [45] was 3410 nM. For the same molecule, the GI50 [46] was 2330 nM, the TGI [46] was 11200 nM and the GI50 [47] was 1660 nM. For the same molecule, the TGI [47] was 3560 nM, the GI50 [48] was 1300 nM and the TGI [48] was 3450 nM. It also gave a GI50 [49] of 4590 nM, a TGI [49] of 18100 nM and a GI50 [50] of 1760 nM. It also gave a TGI [50] of 12000 nM, a GI50 [51] of 1750 nM and a TGI [51] of 3460 nM. For the same molecule, the GI50 [52] was 4030 nM, the TGI [52] was 16800 nM and the GI50 [53] was 2930 nM. The TGI [53] was 12200 nM, the GI50 [54] was 359 nM and the TGI [54] was 2120 nM. The GI50 [55] was 953 nM, the TGI [55] was 3720 nM and the GI50 [56] was 353 nM. It also gave a TGI [56] of 1590 nM, a GI50 [57] of 1500 nM and a TGI [57] of 4710 nM. The GI50 [58] was 1670 nM and the TGI [58] was 3890 nM.
Work on `Cc1ccc2c(c1)C(=O)c1c-2c(OCCCN(C)C)nc2ccccc12` yielded a GI50 [1] of 2730 nM, a TGI [1] of 13100 nM and a GI50 [2] of 2810 nM. It also gave a TGI [2] of 13900 nM, a GI50 [3] of 427 nM and a TGI [3] of 4570 nM. For the same molecule, the GI50 [4] was 1240 nM, the TGI [4] was 6530 nM and the GI50 [5] was 4130 nM. The TGI [5] was 14800 nM, the GI50 [6] was 2930 nM and the TGI [6] was 17000 nM. It also gave a GI50 [7] of 2300 nM, a TGI [7] of 12900 nM and a GI50 [8] of 731 nM. For the same molecule, the TGI [8] was 2110 nM, the GI50 [9] was 5720 nM and the TGI [9] was 19800 nM. The GI50 [10] was 1110 nM, the TGI [10] was 2980 nM and the GI50 [11] was 2490 nM. It also gave a TGI [11] of 13700 nM, a GI50 [12] of 11700 nM and a TGI [12] of 27400 nM. For the same molecule, the GI50 [13] was 1130 nM, the TGI [13] was 8260 nM and the GI50 [14] was 2080 nM. For the same molecule, the TGI [14] was 4340 nM, the GI50 [15] was 7900 nM and the TGI [15] was 23300 nM. The GI50 [16] was 2310 nM, the TGI [16] was 19600 nM and the GI50 [17] was 1180 nM. The TGI [17] was 2520 nM, the GI50 [18] was 1530 nM and the TGI [18] was 2990 nM. For the same molecule, the GI50 [19] was 2220 nM, the TGI [19] was 15500 nM and the GI50 [20] was 1620 nM. The TGI [20] was 9130 nM, the GI50 [21] was 2420 nM and the TGI [21] was 13500 nM. It also gave a GI50 [22] of 4140 nM, a TGI [22] of 16300 nM and a GI50 [23] of 1660 nM. The TGI [23] was 4480 nM, the GI50 [24] was 7950 nM and the TGI [24] was 26000 nM. It also gave a GI50 [25] of 1460 nM, a TGI [25] of 3190 nM and a GI50 [26] of 718 nM. For the same molecule, the TGI [26] was 2120 nM, the GI50 [27] was 587 nM and the TGI [27] was 2020 nM. For the same molecule, the GI50 [28] was 1760 nM, the TGI [28] was 3410 nM and the GI50 [29] was 3060 nM. The TGI [29] was 5820 nM, the GI50 [30] was 2980 nM and the TGI [30] was 18100 nM. For the same molecule, the GI50 [31] was 2710 nM, the TGI [31] was 7930 nM and the GI50 [32] was 2260 nM. It also gave a TGI [32] of 7650 nM, a GI50 [33] of 316 nM and a TGI [33] of 1380 nM. It also gave a GI50 [34] of 2260 nM, a TGI [34] of 12700 nM and a GI50 [35] of 2180 nM. It also gave a TGI [35] of 11800 nM, a GI50 [36] of 1540 nM and a TGI [36] of 3290 nM. For the same molecule, the GI50 [37] was 4100 nM, the TGI [37] was 18200 nM and the GI50 [38] was 1540 nM. The TGI [38] was 2970 nM, the GI50 [39] was 1160 nM and the TGI [39] was 3820 nM. The GI50 [40] was 2520 nM, the TGI [40] was 16000 nM and the GI50 [41] was 1740 nM. For the same molecule, the TGI [41] was 9940 nM, the GI50 [42] was 548 nM and the TGI [42] was 1940 nM. It also gave a GI50 [43] of 6020 nM, a TGI [43] of 20200 nM and a GI50 [44] of 2870 nM. The TGI [44] was 14100 nM, the GI50 [45] was 2670 nM and the TGI [45] was 17700 nM. For the same molecule, the GI50 [46] was 976 nM, the TGI [46] was 3200 nM and the GI50 [47] was 1470 nM. The TGI [47] was 3650 nM, the GI50 [48] was 1350 nM and the TGI [48] was 3720 nM. For the same molecule, the GI50 [49] was 4470 nM, the TGI [49] was 17400 nM and the GI50 [50] was 710 nM. For the same molecule, the TGI [50] was 3330 nM, the GI50 [51] was 4020 nM and the TGI [51] was 14300 nM. It also gave a GI50 [52] of 2810 nM, a TGI [52] of 15100 nM and a GI50 [53] of 1220 nM. For the same molecule, the TGI [53] was 2720 nM, the GI50 [54] was 1640 nM and the TGI [54] was 5450 nM. The GI50 [55] was 4240 nM, the TGI [55] was 19800 nM and the GI50 [56] was 609 nM. It also gave a TGI [56] of 2030 nM, a GI50 [57] of 2180 nM and a TGI [57] of 11600 nM. The GI50 [58] was 1620 nM and the TGI [58] was 3230 nM.
